US10385024B2, “Compounds and methods for inhibiting NHE-mediated antiport in the treatment of disorders associated with fluid retention or salt overload and gastrointestinal tract disorders” (Ardelyx, Inc., priority 2012, dated 2019)

Tests used:
human NHE-3 = biological target: T1, human NHE-3 (Homo sapiens, UniProt P48764); experiment: Cell-based assay of NHE-3 activity (human NHE3 inhibition assay); details: OK cells with human NHE-3 gene, BCECF pH dye, 0-30 μM test compound; for IC50: read-out: Human NHE3 pIC50 (converted)
T1 construct: expressed in transfected cells; host or cells: Opossum kidney (OK) cells (ATCC), transfected by electroporation
T1 sequence (P48764 26-834): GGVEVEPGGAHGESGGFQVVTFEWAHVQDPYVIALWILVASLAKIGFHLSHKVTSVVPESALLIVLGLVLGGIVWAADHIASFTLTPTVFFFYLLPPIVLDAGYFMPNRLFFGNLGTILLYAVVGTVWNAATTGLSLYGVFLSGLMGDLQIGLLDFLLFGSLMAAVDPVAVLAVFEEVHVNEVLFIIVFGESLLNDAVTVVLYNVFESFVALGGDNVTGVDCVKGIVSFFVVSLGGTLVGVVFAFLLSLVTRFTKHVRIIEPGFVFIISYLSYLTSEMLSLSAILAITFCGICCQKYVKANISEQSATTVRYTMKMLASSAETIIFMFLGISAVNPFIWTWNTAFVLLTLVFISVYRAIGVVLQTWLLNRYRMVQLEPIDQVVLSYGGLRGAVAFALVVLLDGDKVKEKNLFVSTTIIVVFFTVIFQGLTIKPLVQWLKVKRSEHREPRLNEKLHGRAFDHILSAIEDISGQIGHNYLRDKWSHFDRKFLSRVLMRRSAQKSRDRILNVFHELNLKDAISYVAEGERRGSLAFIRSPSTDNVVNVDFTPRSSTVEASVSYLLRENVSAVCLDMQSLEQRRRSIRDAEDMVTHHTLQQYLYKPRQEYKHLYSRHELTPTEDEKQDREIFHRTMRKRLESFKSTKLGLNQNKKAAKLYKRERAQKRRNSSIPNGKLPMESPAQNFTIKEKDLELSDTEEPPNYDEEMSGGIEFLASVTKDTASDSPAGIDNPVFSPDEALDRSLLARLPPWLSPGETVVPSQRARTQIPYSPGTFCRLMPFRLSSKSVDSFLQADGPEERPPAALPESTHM
Description: (§1) Rat or human NHE-3-mediated Na^+-dependent H^+ antiport was measured using a modification of the pH sensitive dye method originally reported by Paradiso (Proc. Natl. Acad. Sci. USA. (1984) 81(23): 7436-7440). Opossum kidney (OK) cells were obtained from the ATCC and propagated per their instructions. The rat NHE-3 gene (GenBank M85300) or the human NHE-3 gene (GenBank NM_004174.1) was introduced into OK cells via electroporation, and cells were seeded into 96 well plates and grown overnight. Medium was aspirated from the wells, cells were washed twice with NaCl-HEPES buffer (100 mM NaCl, 50 mM HEPES, 10 mM glucose, 5 mM KCl, 2 mM CaCl2, 1 mM MgCl2, pH 7.4), then incubated for 30 min at room temperature with NH4Cl-HEPES buffer (20 mM NH4Cl, 80 mM NaCl, 50 mM HEPES, 5 mM KCl, 2 mM CaCl2, 1 mM MgCl2, pH 7.4) containing 5 μM bis(acetoxymethyl) 3,3′-(3′,6′-bis(acetoxymethoxy)-5-((acetoxymethoxy)carbonyl)-3-oxo-3H-spiro[isobenzofuran-1,9′-xanthene]-2′,7′-diyl)dipropanoate (BCECF-AM). Cells were washed twice with Ammonium free, Na^+-free HEPES (100 mM choline, 50 mM HEPES, 10 mM glucose, 5 mM KCl, 2 mM CaCl2, 1 mM MgCl2, pH 7.4) and incubated in the same buffer for 10 minutes at room temperature to lower intracellular pH. […] Initial rates were plotted as the average 2 or more replicates, and pIC50 values were estimated using GraphPad Prism.

Rat NHE-3 [1] = biological target: T2, Rat NHE-3 (Rattus norvegicus, UniProt P26433); experiment: Cell-based assay of NHE-3 activity (rat NHE-3 prompt inhibition); details: OK cells with rat NHE-3 gene, compound present during pH recovery; for IC50: read-out: Rat NHE3 pIC50 (prompt) (converted)
T2 construct: expressed in transfected cells; host or cells: Opossum kidney (OK) cells (ATCC), transfected by electroporation
Description: as §1

Rat NHE-3 [2] = biological target: T2, Rat NHE-3; experiment: Cell-based assay of NHE-3 activity (persistent inhibition, after washout); details: OK cells with rat NHE-3 gene, 60 min incubation, recovery initiated 40 min after compound washout; for IC50: read-out: Rat NHE3 pIC50 (persistent) (converted)
Description: The ability of compounds to inhibit Rat NHE-3-mediated Na^+-dependent H^+ antiport after application and washout was measured using a modification of the pH sensitive dye method described above in Example 74. Opossum kidney (OK) cells were obtained from the ATCC and propagated per their instructions. The rat NHE-3 gene was introduced into OK cells via electroporation, and cells were seeded into 96 well plates and grown overnight. Medium was aspirated from the wells, cells were washed twice with NaCl-HEPES buffer (100 mM NaCl, 50 mM HEPES, 10 mM glucose, 5 mM KCl, 2 mM CaCl2, 1 mM MgCl2, pH 7.4), then overlayed with NaCl-HEPES buffer containing 0-30 μM test compound. After a 60 min incubation, the test drug containing buffer was aspirated from the cells, cells were washed twice with NaCl-HEPES buffer without drug, then incubated for 30 min at room temperature with NH4Cl-HEPES buffer (20 mM NH4Cl, 80 mM NaCl, 50 mM HEPES, 5 mM KCl, 2 mM CaCl2, 1 mM MgCl2, pH 7.4) containing 5 μM BCECF-AM. Cells were washed twice with ammonium free, Na^+-free HEPES (100 mM choline, 50 mM HEPES, 10 mM glucose, 5 mM KCl, 2 mM CaCl2, 1 mM MgCl2, pH 7.4) and incubated in the same buffer for 10 minutes at room temperature to lower intracellular pH. […] Initial rates were plotted as the average 2 or more replicates, and pIC50 values were estimated using GraphPad Prism.

T2 sequence (P26433 29-831): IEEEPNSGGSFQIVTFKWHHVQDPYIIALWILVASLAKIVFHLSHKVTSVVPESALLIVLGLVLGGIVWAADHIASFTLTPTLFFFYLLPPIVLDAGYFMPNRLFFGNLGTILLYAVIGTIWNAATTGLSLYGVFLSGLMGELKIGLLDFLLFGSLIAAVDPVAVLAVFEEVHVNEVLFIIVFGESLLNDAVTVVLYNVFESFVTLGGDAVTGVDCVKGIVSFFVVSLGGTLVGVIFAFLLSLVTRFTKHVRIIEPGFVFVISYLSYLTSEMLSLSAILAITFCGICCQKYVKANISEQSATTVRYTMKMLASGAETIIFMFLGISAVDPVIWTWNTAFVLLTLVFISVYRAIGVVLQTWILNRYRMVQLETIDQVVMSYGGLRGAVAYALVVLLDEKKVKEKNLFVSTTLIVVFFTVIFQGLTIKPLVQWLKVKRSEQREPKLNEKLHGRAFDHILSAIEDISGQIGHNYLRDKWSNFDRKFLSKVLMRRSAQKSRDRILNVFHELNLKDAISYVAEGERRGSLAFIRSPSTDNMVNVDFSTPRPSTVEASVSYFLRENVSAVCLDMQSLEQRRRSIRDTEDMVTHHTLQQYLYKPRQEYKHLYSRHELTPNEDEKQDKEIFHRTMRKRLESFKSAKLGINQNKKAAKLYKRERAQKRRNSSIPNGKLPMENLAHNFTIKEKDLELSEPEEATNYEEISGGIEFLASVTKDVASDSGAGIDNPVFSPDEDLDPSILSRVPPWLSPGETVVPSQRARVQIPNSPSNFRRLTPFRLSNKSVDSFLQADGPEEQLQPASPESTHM

Row | Compound | Human NHE3 pIC50 (human NHE-3) | Rat NHE3 pIC50 (prompt) (Rat NHE-3 [1]) | Rat NHE3 pIC50 (persistent) (Rat NHE-3 [2]) | IC50 (human NHE-3) [µM] | IC50 (Rat NHE-3 [1]) [µM] | IC50 (Rat NHE-3 [2]) [µM]
1 | CN1Cc2c(Cl)cc(Cl)cc2[C@H](c2cccc(S(=O)(=O)NCCOCCOCCNC(=O)CCC(CCC(=O)NCCOCCOCCNS(=O)(=O)c3cccc([C@@H]4CN(C)Cc5c(Cl)cc(Cl)cc54)c3)(CCC(=O)NCCOCCOCCNS(=O)(=O)c3cccc([C@@H]4CN(C)Cc5c(Cl)cc(Cl)cc54)c3)NCc3ccc(-c4ccc(Cl)cc4)cc3)c2)C1 [Example 24] | A (A NHE3 pIC50 < 5) | A (A NHE3 pIC50 < 5) | B (B NHE3 pIC50 5-7) |  |  | 
2 | CN1Cc2c(Cl)cc(Cl)cc2[C@H](c2cccc(S(=O)(=O)NCCOCCOCCOCCNC(=O)CCC(CCC(=O)NCCOCCOCCOCCNS(=O)(=O)c3cccc([C@@H]4CN(C)Cc5c(Cl)cc(Cl)cc54)c3)(CCC(=O)NCCOCCOCCOCCNS(=O)(=O)c3cccc([C@@H]4CN(C)Cc5c(Cl)cc(Cl)cc54)c3)NC(=O)c3ccc(-c4ccc(Cl)cc4)cc3)c2)C1 [Example 16, 4-(4′-chlorobiphenyl-4-ylcarboxamido)-4-(1-(3-((S)-6,8-dichloro-2-methyl-1,2,3,4-tetrahydroisoquinolin-4-yl)phenylsulfonamido)-13-oxo-3,6,9-trioxa-12-azapentadecan-15-yl)-N^1,N^7-bis(2-(2-(2-(2-(3-((S)-6,8-dichloro-2-methyl-1,2,3,4-tetrahydroisoquinolin-4-yl)phenylsulfonamido)ethoxy)ethoxy)ethoxy)ethyl)heptanediamide] |  |  |  | > 10 | 0.1 to 10 | 0.1 to 10
3 | CN1Cc2c(Cl)cc(Cl)cc2[C@H](c2cccc(S(=O)(=O)NCCOCCOCCN(C)C(=O)CCC(CCC(=O)N(C)CCOCCOCCNS(=O)(=O)c3cccc([C@@H]4CN(C)Cc5c(Cl)cc(Cl)cc54)c3)(CCC(=O)N(C)CCOCCOCCNS(=O)(=O)c3cccc([C@@H]4CN(C)Cc5c(Cl)cc(Cl)cc54)c3)NC(=O)NCC(=O)O)c2)C1 [Example 69] | C (C NHE3 pIC50 > 7) | C (C NHE3 pIC50 > 7) | C (C NHE3 pIC50 > 7) |  |  | 
4 | CN1Cc2c(Cl)cc(Cl)cc2[C@H](c2cccc(S(=O)(=O)NCCOCCOCCNC(=O)NCCN(CCNC(=O)NCCOCCOCCNS(=O)(=O)c3cccc([C@@H]4CN(C)Cc5c(Cl)cc(Cl)cc54)c3)C(=O)CCOCCOCCOCCOCCOCCC(=O)N(CCNC(=O)NCCOCCOCCNS(=O)(=O)c3cccc([C@@H]4CN(C)Cc5c(Cl)cc(Cl)cc54)c3)CCNC(=O)NCCOCCOCCNS(=O)(=O)c3cccc([C@@H]4CN(C)Cc5c(Cl)cc(Cl)cc54)c3)c2)C1 [Example 59] | C (C NHE3 pIC50 > 7) | B (B NHE3 pIC50 5-7) | C (C NHE3 pIC50 > 7) |  |  | 
5 | CN1Cc2c(Cl)cc(Cl)cc2[C@H](c2cccc(S(=O)(=O)NCCOCCOCCNC(=O)NCCN(CCNC(=O)NCCOCCOCCNS(=O)(=O)c3cccc([C@@H]4CN(C)Cc5c(Cl)cc(Cl)cc54)c3)C(=O)CCCCCCCCCCC(=O)N(CCNC(=O)NCCOCCOCCNS(=O)(=O)c3cccc([C@@H]4CN(C)Cc5c(Cl)cc(Cl)cc54)c3)CCNC(=O)NCCOCCOCCNS(=O)(=O)c3cccc([C@@H]4CN(C)Cc5c(Cl)cc(Cl)cc54)c3)c2)C1 [Example 44, N^1,N^1,N^12,N^12-tetrakis(13-(3-((S)-6,8-dichloro-2-methyl-1,2,3,4-tetrahydroisoquinolin-4-yl)phenylsulfonamido)-4-oxo-8,11-dioxa-3,5-diazatridecyl)dodecanediamide] |  |  |  | > 10 | > 10 | 0.1 to 10
6 | CN1Cc2c(Cl)cc(Cl)cc2[C@H](c2cccc(S(=O)(=O)NCCOCCOCCN(C)C(=O)CCC(CCC(=O)N(C)CCOCCOCCNS(=O)(=O)c3cccc([C@@H]4CN(C)Cc5c(Cl)cc(Cl)cc54)c3)(CCC(=O)N(C)CCOCCOCCNS(=O)(=O)c3cccc([C@@H]4CN(C)Cc5c(Cl)cc(Cl)cc54)c3)N(C)C)c2)C1 [Example 71] | C (C NHE3 pIC50 > 7) |  |  |  |  | 
7 | CN1Cc2c(Cl)cc(Cl)cc2[C@H](c2cccc(S(=O)(=O)NCCOCCOCCOCCNC(=O)CN(CCN(CC(=O)NCCOCCOCCOCCNS(=O)(=O)c3cccc([C@@H]4CN(C)Cc5c(Cl)cc(Cl)cc54)c3)CC(=O)NCCOCCOCCOCCNS(=O)(=O)c3cccc([C@@H]4CN(C)Cc5c(Cl)cc(Cl)cc54)c3)CCN(CC(=O)NCCOCCOCCOCCNS(=O)(=O)c3cccc([C@@H]4CN(C)Cc5c(Cl)cc(Cl)cc54)c3)CC(=O)NCCOCCOCCOCCNS(=O)(=O)c3cccc([C@@H]4CN(C)Cc5c(Cl)cc(Cl)cc54)c3)c2)C1 [Example 49] | B (B NHE3 pIC50 5-7) | B (B NHE3 pIC50 5-7) | B (B NHE3 pIC50 5-7) |  |  | 
8 | CN1Cc2c(Cl)cc(Cl)cc2[C@H](c2cccc(S(=O)(=O)NCCOCCOCCNC(=O)CCC(CCC(=O)NCCOCCOCCNS(=O)(=O)c3cccc([C@@H]4CN(C)Cc5c(Cl)cc(Cl)cc54)c3)(CCC(=O)NCCOCCOCCNS(=O)(=O)c3cccc([C@@H]4CN(C)Cc5c(Cl)cc(Cl)cc54)c3)NC(=O)c3ccc(-c4ccc(Cl)cc4)cc3)c2)C1 [Example 35] | B (B NHE3 pIC50 5-7) |  |  |  |  | 
9 | CN1Cc2c(Cl)cc(Cl)cc2[C@H](c2cccc(S(=O)(=O)NCCOCCOCCNC(=O)NCCN(CCNC(=O)NCCOCCOCCNS(=O)(=O)c3cccc([C@@H]4CN(C)Cc5c(Cl)cc(Cl)cc54)c3)C(=O)NCCCCNC(=O)N(CCNC(=O)NCCOCCOCCNS(=O)(=O)c3cccc([C@@H]4CN(C)Cc5c(Cl)cc(Cl)cc54)c3)CCNC(=O)NCCOCCOCCNS(=O)(=O)c3cccc([C@@H]4CN(C)Cc5c(Cl)cc(Cl)cc54)c3)c2)C1 [Example 60] | C (C NHE3 pIC50 > 7) |  |  |  |  | 
10 | CN1Cc2c(Cl)cc(Cl)cc2[C@H](c2cccc(S(=O)(=O)NCCOCCOCCNC(=O)CN(CCOCCOCCN(CC(=O)NCCOCCOCCNS(=O)(=O)c3cccc([C@@H]4CN(C)Cc5c(Cl)cc(Cl)cc54)c3)CC(=O)NCCOCCOCCNS(=O)(=O)c3cccc([C@@H]4CN(C)Cc5c(Cl)cc(Cl)cc54)c3)CC(=O)NCCOCCOCCNS(=O)(=O)c3cccc([C@@H]4CN(C)Cc5c(Cl)cc(Cl)cc54)c3)c2)C1 [Example 50] | B (B NHE3 pIC50 5-7) |  |  |  |  | 
